For 13 compounds, IC50 results are on record in patent US20230069722A1, “TUBULYSINS AND PROTEIN-TUBULYSIN CONJUGATES” (priority 2020, published 2023).

Read-outs that look alike come from different tables or passages of the source.

For this experiment, the system named is HCT15 cells. Nature of the experiment: MDR cell based killing assay, HCT15 cells with or without Verapamil (CellTiter-Glo). The note with it: Homo sapiens. Further details: species or system human. The procedure: To test the ability of the disclosed tubulysin payloads or prodrug payloads to kill human cell lines, an in vitro cytotoxicity assay can be performed. In vitro cytotoxicity of the disclosed payloads, as well as reference compounds, are evaluated using the CellTiter-Glo Assay Kit (Promega, Cat # G7573), in which the quantity of ATP present is used to determine the number of viable cells in culture. For the assay, C4-2, HEK293, or T47D cells are seeded at 4000 cells/well on Nunclon white 96-well plates in complete growth medium (DME high glucose:Ham's F12 at 4:1, 10% FBS, 100 units/ml Penicillin, 100 ug/ml streptomycin, 53 ug/ml glutatmine, 10 ug/ml insulin, 220 ng/ml biotin, 12.5 pg/ml T3, 12.5 ug/ml Adenine, 4 ug/ml transferrin for C42 cells; DME high glucose, 10% FBS, 100 units/ml Penicillin, 100 ug/ml streptomycin, 53 ug/ml glutatmine for HEK293; RPMI, 10% FBS, 100 units/ml Penicillin, 100 ug/ml streptomycin, 53 ug/ml glutatmine, 10 ug/ml insulin, 10 mM HEPEs, 200 nM Sodium Pyruvate for T47D cells) and grown overnight at 37° C. in 5% CO2. For cell viability curves, 1:3 serially diluted payloads are added to the cells at final concentrations ranging from 100 nM to 15 pM, including a no treatment control group, and are then incubated for 5 days. After the 5-day incubation, cells are incubated at room temperature with 100 μL of CellTiter-Glo reagents for 10 minutes. Relative luminescence units (RLU) can be determined on a Victor plate reader (PerkinElmer). The IC50 values are determined from a four-parameter logistic equation over a 10-point response curve (GraphPad Prism). All IC50 values are expressed in molar (M) concentration. The percent cell killing (% kill) at the maximum concentration tested is estimated from the following formula (100−% viable cells). Averages±standard deviation (SD) can be included where replicate experiments are performed.
In vitro cytotoxicity of the disclosed payloads as well as reference compounds are evaluated similarly as described above except using 1000 HCT15 cells, a colorectal carcinoma cell line, in growth medium (RPMI, 10% FBS, 100 units/ml Penicillin, 100 ug/ml streptomycin, 53 ug/ml glutatmine) with or without 5 ug/mL of Verapamil.
For each payload or prodrug payload, the HCT-15 IC50 in the absence of Verapamil is divided by the HCT-15 IC50 in the presence of Verapamil (HCT-15 IC50/HCT-15+Verapamil IC50). […] The reference compound, (MMAE), can have a ratio of 23.7. […]
A general note: Cellular ATP, detected with luciferase, serves as a proxy for viable cell number.

Setting [1] is: HCT-15, read-out: HCT-15 with verapamil IC50.

As for `CCCCCCN(C(=O)[C@@H](NC(=O)[C@H]1CCCCN1C)[C@@H](C)CC)[C@H](C[C@@H](NC(C)=O)c1nc(C(=O)N[C@@H](Cc2ccc(N)cc2)CC(C)(C)C(=O)O)cs1)C(C)C` [Compound P9, (4S)-5-(4-aminophenyl)-4-({2-[(1R,3R)-1-acetamido-3-[(2S,3S)—N-hexyl-3-methyl-2-{[(2R)-1-methylpiperidin-2-yl]formamido}pentanamido]-4-methylpentyl]-1,3-thiazol-4-yl}formamido)-2,2-dimethylpentanoic Acid], the IC50 – broadly, the concentration that gives 50% inhibition – reads like this: (HCT-15, read-out: HCT-15 IC50) 2.07 nM; under setting [1], 0.3 nM. On to `C#CCCCON(C(=O)[C@@H](NC(=O)[C@H]1CCCCN1C)[C@@H](C)CC)[C@H](C[C@@H](O)c1nc(C(=O)N[C@@H](Cc2ccc(N)cc2)CC(C)(C)C(=O)O)cs1)C(C)C` [Compound P33, (4S)-5-(4-aminophenyl)-4-({2-[(1R,3R)-1-hydroxy-4-methyl-3-[(2S,3S)-3-methyl-2-{[(2R)-1-methylpiperidin-2-yl]formamido}-N-(pent-4-yn-1-yloxy)pentanamido]pentyl]-1,3-thiazol-4-yl}formamido)-2,2-dimethylpentanoic Acid], for which the IC50 runs as follows: (HCT-15, read-out: HCT-15 IC50) 81.7 nM; under setting [1], 28.1 nM. The corresponding values for `CCCCCCN(C(=O)[C@@H](NC(=O)[C@H]1C[C@H](C)CCN1C)[C@@H](C)CC)[C@H](C[C@@H](OC(C)=O)c1nc(C(=O)N[C@@H](Cc2ccc(N)c(F)c2)CC(C)(C)C(=O)O)cs1)C(C)C` [Compound P13, (4S)-4-({2-[(1R,3R)-1-(acetyloxy)-3-[(2S,3S)-2-{[(2R,4R)-1,4-dimethylpiperidin-2-yl]formamido}-N-hexyl-3-methylpentanamido]-4-methylpentyl]-1,3-thiazol-4-yl}formamido)-5-(4-amino-3-fluorophenyl)-2,2-dimethylpentanoic Acid] are 0.15 nM and 0.13 nM. The corresponding values for `CCCCCCN(C(=O)[C@@H](NC(=O)[C@H]1CCCCN1)[C@@H](C)CC)[C@H](C[C@@H](OC(C)=O)c1nc(C(=O)N[C@@H](Cc2ccc(N)c(F)c2)CC(C)(C)C(=O)O)cs1)C(C)C` [Compound P12, (4S)-4-({2-[(1R,3R)-1-(acetyloxy)-3-[(2S,3S)—N-hexyl-3-methyl-2-[(2R)-piperidin-2-ylformamido]pentanamido]-4-methylpentyl]-1,3-thiazol-4-yl}formamido)-5-(4-amino-3-fluorophenyl)-2,2-dimethylpentanoic Acid] are 0.34 nM and 0.03 nM.

As for `CCCCCCN(C(=O)[C@@H](NC(=O)[C@H]1CCCCN1)[C@@H](C)CC)[C@H](C[C@@H](OCC)c1nc(C(=O)N[C@@H](Cc2ccc(N)cc2)CC(C)(C)C(=O)O)cs1)C(C)C` [Compound P20, (4S)-5-(4-aminophenyl)-4-({2-[(1R,3R)-1-ethoxy-3-[(2S,3S)—N-hexyl-3-methyl-2-[(2R)-piperidin-2-ylformamido]pentanamido]-4-methylpentyl]-1,3-thiazol-4-yl}formamido)-2,2-dimethylpentanoic Acid], the IC50 is 6.97 nM (HCT-15, read-out: HCT-15 IC50) and 0.52 nM under setting [1]. Turning to `C#CCCCON(C(=O)[C@@H](NC(=O)[C@H]1CCCCN1C)[C@@H](C)CC)[C@H](C[C@@H](OC(C)=O)c1nc(C(=O)N[C@@H](Cc2ccc(N)cc2)CC(C)(C)C(=O)O)cs1)C(C)C` [Compound P34, (4S)-4-({2-[(1R,3R)-1-(acetyloxy)-4-methyl-3-[(2S,3S)-3-methyl-2-{[(2R)-1-methylpiperidin-2-yl]formamido}-N-(pent-4-yn-1-yloxy)pentanamido]pentyl]-1,3-thiazol-4-yl}formamido)-5-(4-aminophenyl)-2,2-dimethylpentanoic Acid], the IC50 came to 0.41 nM (HCT-15, read-out: HCT-15 IC50) and 0.24 nM under setting [1].

Turning to `CCCCCCN(C(=O)[C@@H](NC(=O)[C@H]1CCCCN1C)[C@@H](C)CC)[C@H](C[C@@H](OC(C)=O)c1nc(C(=O)N[C@@H](Cc2ccc(F)cc2)CC(C)(C)C(=O)NS(=O)(=O)c2ccc(CN)cc2)cs1)C(C)C` [Compound P46, (1R,3R)-1-(4-{[(2S)-4-{[4-(aminomethyl)benzenesulfonyl]carbamoyl}-1-(4-fluorophenyl)-4,4-dimethylbutan-2-yl]carbamoyl}-1,3-thiazol-2-yl)-3-[(2S,3S)—N-hexyl-3-methyl-2-{[(2R)-1-methylpiperidin-2-yl]formamido}pentanamido]-4-methylpentyl Acetate], for the setting “HCT-15, read-out: HCT-15 IC50”, the IC50 is more than 100 nM.

Regarding `CCCCCCN(C(=O)[C@@H](NC(=O)[C@H]1CCCCN1C)[C@@H](C)CC)[C@H](C[C@@H](O)c1nc(C(=O)N[C@@H](Cc2ccc(N)c(F)c2)CC(C)(C)C(=O)O)cs1)C(C)C` [Compound P1, (4S)-5-(4-amino-3-fluorophenyl)-4-({2-[(1R,3R)-3-[(2S,3S)—N-hexyl-3-methyl-2-{[(2R)-1-methylpiperidin-2-yl]formamido}pentanamido]-1-hydroxy-4-methylpentyl]-1,3-thiazol-4-yl}formamido)-2,2-dimethylpentanoic Acid], the IC50 turned out to be 3 nM (HCT-15, read-out: HCT-15 IC50) and 0.26 nM under setting [1]. The like results for `CCCCCCN(C(=O)[C@@H](NC(=O)[C@H]1C[C@H](C)CCN1)[C@@H](C)CC)[C@H](C[C@@H](OCC)c1nc(C(=O)N[C@@H](Cc2ccc(N)cc2)CC(C)(C)C(=O)O)cs1)C(C)C` [Compound P21, (4S)-5-(4-aminophenyl)-4-({2-[(1R,3R)-1-ethoxy-3-[(2S,3S)—N-hexyl-3-methyl-2-{[(2R,4R)-4-methylpiperidin-2-yl]formamido}pentanamido]-4-methylpentyl]-1,3-thiazol-4-yl}formamido)-2,2-dimethylpentanoic Acid] were, in that order, 11.1 nM and 1.47 nM. Consider `C#CCCCON(C(=O)[C@@H](NC(=O)[C@H]1CCCCN1C)[C@@H](C)CC)[C@H](C[C@@H](OC(C)=O)c1nc(C(=O)N[C@@H](Cc2ccc(NC(=O)CNC(=O)CN)cc2)CC(C)(C)C(=O)O)cs1)C(C)C` [Compound P39, (4S)-4-({2-[(1R,3R)-1-(acetyloxy)-4-methyl-3-[(2S,3S)-3-methyl-2-{[(2R)-1-methylpiperidin-2-yl]formamido}-N-(pent-4-yn-1-yloxy)pentanamido]pentyl]-1,3-thiazol-4-yl}formamido)-5-{4-[2-(2-aminoacetamido)acetamido]phenyl}-2,2-dimethylpentanoic Acid], for which the IC50 (HCT-15, read-out: HCT-15 IC50) came out at 0.62 nM. As to `CCCCCCN(C(=O)[C@@H](NC(=O)[C@H]1CCCCN1C)[C@@H](C)CC)[C@H](C[C@@H](OC(=O)NCCN)c1nc(C(=O)N[C@@H](Cc2ccc(N)c(F)c2)CC(C)(C)C(=O)O)cs1)C(C)C` [Compound P5, (4S)-5-(4-amino-3-fluorophenyl)-4-({2-[(1R,3R)-1-{[(2-aminoethyl)carbamoyl]oxy}-3-[(2S,3S)—N-hexyl-3-methyl-2-{[(2R)-1-methylpiperidin-2-yl]formamido}pentanamido]-4-methylpentyl]-1,3-thiazol-4-yl}formamido)-2,2-dimethylpentanoic Acid], the IC50 was 38.6 nM (HCT-15, read-out: HCT-15 IC50) and 4.44 nM under setting [1]. The like results for `CCCCCCN(C(=O)[C@@H](NC(=O)[C@H]1CCCCN1C)[C@@H](C)CC)[C@H](C[C@@H](OC(C)=O)c1nc(C(=O)NS(=O)(=O)c2ccc(CN)cc2)cs1)C(C)C` [Compound P42, (1R,3R)-1-(4-{[4-(aminomethyl)benzenesulfonyl]carbamoyl}-1,3-thiazol-2-yl)-3-[(2S,3S)—N-hexyl-3-methyl-2-{[(2R)-1-methylpiperidin-2-yl]formamido}pentanamido]-4-methylpentyl Acetate] were, in that order, more than 100 nM and 48.4 nM. On to `CCCCCCN(C(=O)[C@@H](NC(=O)[C@H]1CCCCN1C)[C@@H](C)CC)[C@H](C[C@@H](OCC)c1nc(C(=O)N[C@@H](Cc2ccc(N)c(F)c2)CC(C)(C)C(=O)O)cs1)C(C)C` [Compound P3, (4S)-5-(4-amino-3-fluorophenyl)-4-({2-[(1R,3R)-1-ethoxy-3-[(2S,3S)—N-hexyl-3-methyl-2-{[(2R)-1-methylpiperidin-2-yl]formamido}pentanamido]-4-methylpentyl]-1,3-thiazol-4-yl}formamido)-2,2-dimethylpentanoic Acid], for which the IC50 reads like this: (HCT-15, read-out: HCT-15 IC50) 0.07 nM; under setting [1], 0.01 nM.
